Experimental data taken from the supplement of paper PMC10307832.

Legend:
Experiment in all cases: relative viability (nuclei count vs DMSO), 5 days (fraction); higher = more cells survive
17-AAG + AZD7762 = compound: C=CCNC1=C2C[C@@H](C)C[C@H](OC)[C@H](O)[C@@H](C)/C=C(\C)[C@H](OC(N)=O)[C@@H](OC)/C=C\C=C(/C)C(=O)NC(=CC1=O)C2=O [17-AAG] + NC(=O)Nc1cc(-c2cccc(F)c2)sc1C(=O)N[C@H]1CCCNC1 [AZD7762] (partner 0.2 µM)
Outline: (§1)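 Five library-drug doses in √10 steps were combined with a fixed anchor-drug dose, or a single drug was given alone, by pin tool to lung cancer cell lines in 1536-well plates the day after seeding. Nuclei were stained and counted after 5 days. Relative viability is the nuclei count in treated wells over that in vehicle wells, taken as the median of duplicate plates.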

17-AAG + Alpelisib = compound: C=CCNC1=C2C[C@@H](C)C[C@H](OC)[C@H](O)[C@@H](C)/C=C(\C)[C@H](OC(N)=O)[C@@H](OC)/C=C\C=C(/C)C(=O)NC(=CC1=O)C2=O [17-AAG] + Cc1nc(NC(=O)N2CCC[C@H]2C(N)=O)sc1-c1ccnc(C(C)(C)C(F)(F)F)c1 [Alpelisib] (partner 2 µM)
Outline: as §1

17-AAG + Phenformin = compound: C=CCNC1=C2C[C@@H](C)C[C@H](OC)[C@H](O)[C@@H](C)/C=C(\C)[C@H](OC(N)=O)[C@@H](OC)/C=C\C=C(/C)C(=O)NC(=CC1=O)C2=O [17-AAG] + N=C(N)NC(=N)NCCc1ccccc1 [Phenformin] (partner 250 µM)
Outline: as §1

17-AAG + Pictilisib = compound: C=CCNC1=C2C[C@@H](C)C[C@H](OC)[C@H](O)[C@@H](C)/C=C(\C)[C@H](OC(N)=O)[C@@H](OC)/C=C\C=C(/C)C(=O)NC(=CC1=O)C2=O [17-AAG] + CS(=O)(=O)N1CCN(Cc2cc3nc(-c4cccc5[nH]ncc45)nc(N4CCOCC4)c3s2)CC1 [Pictilisib] (partner 1 µM)
Outline: as §1

| Cell Line | relative viability (17-AAG + AZD7762; first compound 0.00128 µM) | relative viability (17-AAG + AZD7762; first compound 0.004048 µM) | relative viability (17-AAG + AZD7762; first compound 0.0128 µM) | relative viability (17-AAG + AZD7762; first compound 0.04048 µM) | relative viability (17-AAG + AZD7762; first compound 0.128 µM) | relative viability (17-AAG + Alpelisib; first compound 0.00128 µM) | relative viability (17-AAG + Alpelisib; first compound 0.004048 µM) | relative viability (17-AAG + Alpelisib; first compound 0.0128 µM) | relative viability (17-AAG + Alpelisib; first compound 0.04048 µM) | relative viability (17-AAG + Alpelisib; first compound 0.128 µM) | relative viability (17-AAG + Phenformin; first compound 0.00128 µM) | relative viability (17-AAG + Phenformin; first compound 0.004048 µM) | relative viability (17-AAG + Phenformin; first compound 0.0128 µM) | relative viability (17-AAG + Phenformin; first compound 0.04048 µM) | relative viability (17-AAG + Phenformin; first compound 0.128 µM) | relative viability (17-AAG + Pictilisib; first compound 0.00128 µM) | relative viability (17-AAG + Pictilisib; first compound 0.004048 µM) | relative viability (17-AAG + Pictilisib; first compound 0.0128 µM) | relative viability (17-AAG + Pictilisib; first compound 0.04048 µM) | relative viability (17-AAG + Pictilisib; first compound 0.128 µM) |
| --- | --- | --- | --- | --- | --- | --- | --- | --- | --- | --- | --- | --- | --- | --- | --- | --- | --- | --- | --- | --- |
| NCI-H596 | 1.12 | 1.05 | 1.18 | 1.04 | 0.397 | 0.479 | 0.648 | 0.564 | 0.454 | 0.358 | 0.829 | 0.68 | 0.554 | 0.781 | 0.309 | 0.363 | 0.304 | 0.417 | 0.42 | 0.253 |
| NCI-H647 | 0.487 | 0.175 | 0.0631 | 0.074 | 0.0589 | 1.29 | 0.605 | 0.0949 | 0.107 | 0.0714 | 0.569 | 0.446 | 0.0903 | 0.103 | 0.103 | 0.454 | 0.253 | 0.0973 | 0.15 | 0.106 |
| NCI-H650 | 0.882 | 1.11 | 0.63 | 0.324 | 0.263 | 1.19 | 1.09 | 1.26 | 0.855 | 0.326 | 0.445 | 0.459 | 0.421 | 0.308 | 0.228 | 0.96 | 1.05 | 0.744 | 0.776 | 0.329 |
| NCI-H727 | 0.6 | 0.491 | 0.56 | 0.298 | 0.305 | 0.519 | 0.63 | 0.358 | 0.182 | 0.192 | 0.535 | 0.445 | 0.475 | 0.287 | 0.277 | 0.405 | 0.513 | 0.217 | 0.171 | 0.198 |
| NCI-H838 | 0.978 | 0.849 | 0.669 | 0.633 | 0.604 | 0.872 | 0.96 | 0.803 | 0.176 | 0.158 | 0.543 | 0.327 | 0.118 | 0.132 | 0.0945 | 0.498 | 0.306 | 0.174 | 0.157 | 0.132 |
| NCI-H1355 | 0.795 | 0.682 | 0.311 | 0.236 | 0.144 | 0.867 | 0.86 | 0.884 | 0.86 | 0.327 | 0.492 | 0.457 | 0.388 | 0.186 | 0.165 | 0.512 | 0.439 | 0.264 | 0.183 | 0.151 |
| NCI-H1395 | 0.415 | 0.431 | 0.395 | 0.34 | 0.337 | 1.02 | 0.967 | 0.804 | 0.395 | 0.388 | 0.449 | 0.425 | 0.4 | 0.358 | 0.324 | 0.659 | 0.614 | 0.381 | 0.354 | 0.435 |
